Measured values reported in PubChem BioAssay AID2060491 (Molecular Pharmacology Branch, DTP, NCI, 2025).
pIC50: −log10 of the molar value.

Test system: 857933-349-R-J2-PDC complex spheroids, viability
Assay: Anticancer human tumor 857933-349-R-J2-PDC patient-derived colon adenocarcinoma cell line growth inhibition [GQUAD]
Conditions: for pIC50: curve of first compound; for viability, T/C: stronger effect = lower value
Source text: DNA G-quadruplex Stabilizer Agents in Combinations in Complex Spheroids
A high-throughput screen of multi-cell type tumor spheroids was designed to identify active combinations of DNA G-quadruplex stabilizer agents and targeted small molecules. Complex spheroids include a stromal component modeled by human endothelial cells (HUVEC) and fibroblasts modeled by human mesenchymal stem cells (MSCs). The concentration ranges selected for each drug and investigational agent were based upon clinically achievable concentrations if the clinical Cmax of the agent was known.
Compounds. The drugs and investigational agents: pidnarulex (CX-5461; NSC782164), APTO-253 (NSC789042), BRACO-19 (NSC847499), peposertib (NSC802822), ceralasertib (NSC780249), elimusertib (NSC800525), camonsertib (NSC841442), AZD-1390 (NSC803789), olaparib (NSC753686), talazoparib (NSC767125), ART-558 (NSC835418), sotorasib (NSC818433), MRTX-1133 (NSC836407), SN-38 (NSC673596), topotecan (NSC609699), etoposide (NSC141540), doxorubicin (NSC123127), gemcitabine (NSC613327), 5-fluorouracil (NSC19893), paclitaxel (NSC125973), vemurafenib (NSC761431), panobinostat (NSC761190), R-306465 (JNJ-16241199; NSC773264), adavosertib (NSC754352), TP-3654 (NSC805149), carboplatin (NSC241240), KSQ-4279 (NSC840948), and staurosporine (NSC755774) were obtained from the National Cancer Institute (NCI) Developmental Therapeutics Program Chemical Repository (34). The FDA-approved anticancer drug set is available from the NCI Developmental Therapeutics Program. […] The stock solutions were prepared in dimethyl sulfoxide (DMSO, Sigma-Aldrich, St. Louis, MO, cat. D2650) at 800-fold the tested concentration and stored at -70 degrees C prior to their use. All drugs and investigational agents were tested over a range starting from a high concentration at or near the clinical Cmax and decreasing in half-log increments. If the clinical Cmax for an agent had not been determined, the highest concentration tested was 10 microM.
2.3 Cell Culture. All cells were maintained in an incubator at 37 degrees C and 5% CO2 with 95% humidity. The PDC lines were cultured according to standard operating procedures established by the NCI PDMR. All PDCs were thawed and cultured in Matrigel-coated flasks prepared with a working solution of 1X Ham's F-12 nutrient mix, without supplementation (Invitrogen, cat. 11765054), 100 U/mL penicillin-streptomycin (Invitrogen, cat. 15140122), and 2.5% Matrigel (Corning Inc., cat. 354248) for the first three passages. The 857933-349-R-J2-PDC line was cultured in 6C/Colon 1B media, which includes advanced DMEM/F-12 (Thermo Fisher Scientific, cat. 12634028), 10 mM HEPES (Thermo Fisher Scientific, cat. 15630080), 1X GlutaMAX supplement (Thermo Fisher Scientific, cat. 35050061), 0.1 mg/mL primocin (InvivoGen, cat. ant-pm-2), 10% defined fetal bovine serum, heat inactivated (HyClone Laboratories Inc., cat. SH30070.03HI), 50% L-WRN conditioned media (ATCC, cat. CRL-3276), 1.25 mM N-Acetyl-L-cysteine (Sigma-Aldrich, cat. A9165), 10 mM nicotinamide (Sigma-Aldrich, cat. N0636), 1X B-27 supplement (Thermo Fisher Scientific, cat. 17504044), 1X N-2 supplement (Thermo Fisher Scientific, cat. 17502048), 10 microM Y-27632 dihydrochloride (Tocris Bioscience, cat. 1254), and 50 ng/mL human EGF recombinant protein (Thermo Fisher Scientific, cat. PHG0311). The 485176-168-R4-J1-PDC line was cultured in Panc media, which includes all 6C/Colon 1B media components plus 100 ng/mL human FGF-10 (Thermo Fisher Scientific, cat. 100-26), 500 nM SB-431542 (Selleckchem, cat. S1067), and gastrin (Tocris, cat. 3006).
[…]
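Also: spheroids exposed to compounds for one week before readout.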
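For viability, T/C in this document: percent viability relative to vehicle DMSO wells taken as 100%.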

Compound `CC[C@@]1(O)C(=O)OCc2c1cc1n(c2=O)Cc2cc3c(CN(C)C)c(O)ccc3nc2-1` + Cc1cnc(CNC(=O)c2c(=O)c3ccc(N4CCCN(C)CC4)nc3n3c2sc2ccccc23)cn1 has a pIC50 (second compound 0.0316 µM) of 7.06, a pIC50 (second compound 0.1 µM) of 7.17 and a pIC50 (second compound 0.316 µM) greater than 9.00. The pIC50 (second compound 1 µM) was greater than 9.00, the pIC50 (second compound 3.16 µM) was greater than 9.00 and the pIC50 (second compound 10 µM) was greater than 9.00. It also gave a viability, T/C (second compound 0.0316 µM, first compound 0.000999 µM) of 95.9%, a viability, T/C (second compound 0.0316 µM, first compound 0.00316 µM) of 96% and a viability, T/C (second compound 0.0316 µM, first compound 0.00999 µM) of 81.6%. For the same compound, the viability, T/C (second compound 0.0316 µM, first compound 0.0316 µM) was 59.7%, the viability, T/C (second compound 0.0316 µM, first compound 0.0999 µM) was 53.1% and the viability, T/C (second compound 0.0316 µM, first compound 0.316 µM) was 32.2%. It also gave a viability, T/C (second compound 0.1 µM, first compound 0.000999 µM) of 58.2%, a viability, T/C (second compound 0.1 µM, first compound 0.00316 µM) of 65.6% and a viability, T/C (second compound 0.1 µM, first compound 0.00999 µM) of 61.4%. It also gave a viability, T/C (second compound 0.1 µM, first compound 0.0316 µM) of 60.3%, a viability, T/C (second compound 0.1 µM, first compound 0.0999 µM) of 44.8% and a viability, T/C (second compound 0.1 µM, first compound 0.316 µM) of 19.6%. It also gave a viability, T/C (second compound 0.316 µM, first compound 0.000999 µM) of 23.6%, a viability, T/C (second compound 0.316 µM, first compound 0.00316 µM) of 20.7% and a viability, T/C (second compound 0.316 µM, first compound 0.00999 µM) of 18.6%. For the same compound, the viability, T/C (second compound 0.316 µM, first compound 0.0316 µM) was 22%, the viability, T/C (second compound 0.316 µM, first compound 0.0999 µM) was 14% and the viability, T/C (second compound 0.316 µM, first compound 0.316 µM) was 5.04%. It also gave a viability, T/C (second compound 1 µM, first compound 0.000999 µM) of 4.85%, a viability, T/C (second compound 1 µM, first compound 0.00316 µM) of 5.23% and a viability, T/C (second compound 1 µM, first compound 0.00999 µM) of 4.03%. The viability, T/C (second compound 1 µM, first compound 0.0316 µM) was 3.48%, the viability, T/C (second compound 1 µM, first compound 0.0999 µM) was 2.83% and the viability, T/C (second compound 1 µM, first compound 0.316 µM) was 2.11%. It also gave a viability, T/C (second compound 3.16 µM, first compound 0.000999 µM) of 2.58%, a viability, T/C (second compound 3.16 µM, first compound 0.00316 µM) of 2.92% and a viability, T/C (second compound 3.16 µM, first compound 0.00999 µM) of 2.38%. For the same compound, the viability, T/C (second compound 3.16 µM, first compound 0.0316 µM) was 2.13%, the viability, T/C (second compound 3.16 µM, first compound 0.0999 µM) was 1.91% and the viability, T/C (second compound 3.16 µM, first compound 0.316 µM) was 1.66%. The viability, T/C (second compound 10 µM, first compound 0.000999 µM) was 1.38%, the viability, T/C (second compound 10 µM, first compound 0.00316 µM) was 1.91% and the viability, T/C (second compound 10 µM, first compound 0.00999 µM) was 1.93%. For the same compound, the viability, T/C (second compound 10 µM, first compound 0.0316 µM) was 2.78%, the viability, T/C (second compound 10 µM, first compound 0.0999 µM) was 0.44% and the viability, T/C (second compound 10 µM, first compound 0.316 µM) was 0.24%.
